Results taken from paper PMC3251615, “Effects of NK-4 in a Transgenic Mouse Model of Alzheimer's Disease” (PLoS ONE, 2012).
pIC50: −log10 of the molar value.

Target: T1, Beta-amyloid (Aβ) peptide Aβ1–40 (Homo sapiens, UniProt P05067)
T1 construct: gene APP; Aβ1–40 (Aβ1–42 and Aβ25–35 also measured)
Test: Thioflavin T fibril formation assay on the isolated peptide, […] hr at […] °C; electron microscopy (Aβ[…] and Aβ[…])
Assay type: biochemical

T1 sequence (P05067 672-711 limits assumed): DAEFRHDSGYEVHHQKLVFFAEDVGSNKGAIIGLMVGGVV

pIC50: ~5.00
Structure (SMILES): CCN1C=CC(=CC=C(C=Cc2cc[n+](CC)c3ccccc23)c2cc[n+](CC)c3ccccc23)c2ccccc21 [NK-4, 4,4′-[3-{2-(1-ethyl-4(1H)-quinolylidene)ethylidene}propenylene] bis(1-ethylquinolinium iodide)]
